This note sets out measurements from ChEMBL document CHEMBL1129782, “Azole phenoxy hydroxyureas as selective and orally active inhibitors of 5-lipoxygenase” (J Med Chem, 1996).

The target in test [1] is T1, Polyunsaturated fatty acid 5-lipoxygenase (Rattus norvegicus) (UniProt P12527).
T1 sequence (whole entry): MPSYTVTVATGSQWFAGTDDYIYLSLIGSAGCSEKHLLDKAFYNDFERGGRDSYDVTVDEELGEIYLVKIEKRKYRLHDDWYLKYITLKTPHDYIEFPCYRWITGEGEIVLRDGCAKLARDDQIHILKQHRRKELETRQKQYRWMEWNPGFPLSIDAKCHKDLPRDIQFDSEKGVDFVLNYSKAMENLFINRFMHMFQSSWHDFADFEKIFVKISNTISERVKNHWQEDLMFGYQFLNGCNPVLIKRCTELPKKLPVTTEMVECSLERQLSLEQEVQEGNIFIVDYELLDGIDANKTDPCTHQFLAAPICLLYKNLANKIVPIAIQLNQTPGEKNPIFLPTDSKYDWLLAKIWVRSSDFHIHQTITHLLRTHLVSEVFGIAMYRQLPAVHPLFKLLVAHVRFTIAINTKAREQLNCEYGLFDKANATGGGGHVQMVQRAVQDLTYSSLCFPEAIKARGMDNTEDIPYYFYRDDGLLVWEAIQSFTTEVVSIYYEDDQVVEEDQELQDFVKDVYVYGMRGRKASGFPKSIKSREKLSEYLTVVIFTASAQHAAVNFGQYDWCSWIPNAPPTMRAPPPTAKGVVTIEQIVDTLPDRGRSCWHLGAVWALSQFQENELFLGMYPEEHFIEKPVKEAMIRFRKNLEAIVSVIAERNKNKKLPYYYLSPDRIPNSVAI
Put plainly: Ex vivo inhibitory activity at an peroral dose of 10 mg/Kg against LTB4 biosynthesis in rat blood, after pretreatment period of 6 hr. The test is classed as functional.

The test system of test [2] is Cavia porcellus. Nature of the test: Intravenous effective dose against antigen induced bronchoconstriction in the guinea pig. The test is classed as functional.
The species named for test [3] is Homo sapiens. Nature of the test: Inhibition of LTB4 biosynthesis at 1 uM, in calcium ionophore-stimulated human whole blood leukocyte (HBL) assay. The test is classed as functional.
The target of test [4] is T1, Polyunsaturated fatty acid 5-lipoxygenase (Rattus norvegicus). Put plainly: Activity against LTB4 biosynthesis in the rat RPAR pleurisy model po (10 mg/kg). In kind it is functional, organism-based.
For test [5], the species on record is Cavia porcellus. Nature of the test: Oral effective dose against antigen induced bronchoconstriction in the guinea pig. The test is classed as functional.
Test [6] is filed under the species Rattus norvegicus. Put plainly: Ex vivo oral effective dose against LTB4 biosynthesis in rat blood, after pretreatment period of 3h. In kind it is functional.
Test [7] is filed under the species Homo sapiens. Put plainly: In vitro inhibitory concentration against LTB4 biosynthesis in calcium ionophore-stimulated human whole blood leukocyte (HBL) assay. In kind it is functional.
For test [8], the species on record is Rattus norvegicus. Put plainly: Oral effective dose against LTB4 biosynthesis in the rat RPAR pleurisy model. The test is classed as functional.
Test [9] deals with T1, Polyunsaturated fatty acid 5-lipoxygenase (Rattus norvegicus). Put plainly: Ex vivo inhibitory activity at an peroral dose of 10 mg/Kg against LTB4 biosynthesis in rat blood, after pretreatment period of 3h. In kind it is functional.
The test system of test [10] is Rattus norvegicus. Put plainly: Ex vivo inhibitory activity at an peroral dose of 1 mg/Kg against LTB4 biosynthesis in rat blood, after pretreatment period of 6 hr. In kind it is functional. The conditions noted are these: po.
In test [11] the test system is Cavia porcellus. Put plainly: Intravenous effective dose against antigen induced bronchoconstriction in guinea pig. In kind it is functional.
Test [12] has as its system Rattus norvegicus. Nature of the test: Ex vivo inhibitory activity at an peroral dose of 25 mg/Kg against LTB4 biosynthesis in rat blood, after pretreatment period of 3h. The conditions noted are these: po. The test is classed as functional.
For test [13], the species on record is Homo sapiens. Nature of the test: Compound at 10 uM was tested in vitro for the inhibition of LTB4 biosynthesis in calcium ionophore-stimulated human whole blood leukocyte (HBL) assay. The test is classed as functional.
The test system of test [14] is Rattus norvegicus. Put plainly: Activity against LTB4 biosynthesis in the rat RPAR pleurisy model po (25 mg/kg). In kind it is functional.

As to `NC(=O)N(O)Cc1cccc(OCc2csc(-c3ccccc3)n2)c1`, the inhibition in [1] was 80%; in [4], 40%. Further, the ED50 in the test with Cavia porcellus [2] worked out at 6 mg/kg. In addition, the inhibition at 1 µM in the test listed under Homo sapiens [3] was determined as 66%.

As to `CC(c1cc2ccccc2s1)N(O)C(N)=O` (stereo not drawn) [ZILEUTON], the ED50 in the test listed under Cavia porcellus [5] is 46 mg/kg; in the test listed under Rattus norvegicus [6], 10.2 mg/kg; with Cavia porcellus [2] it was 19 mg/kg; in the test listed under Rattus norvegicus [8], 7.8 mg/kg. Besides, in the test filed under Homo sapiens [7], the IC50 was 3 µM.

`Cc1oc(-c2ccc(C(F)(F)F)cc2)nc1CCOc1ccc(CN(O)C(N)=O)cc1`: in test [9], the inhibition amounted to 67%. Moreover, in the test filed under Rattus norvegicus [8], the 50% effect level (ED50) was put at a dose of 5 mg/kg. The inhibition in vivo at 1 mg/kg in the test on Rattus norvegicus [10] was determined as 57%.

In the case of `Cc1oc(-c2ccc(F)cc2)nc1COc1cccc(CN(O)C(N)=O)c1`, the inhibition at 1 µM in the test filed under Homo sapiens [3] was 74%. In the test with Cavia porcellus [11], this compound had an ED50 of 5 mg/kg. For the same compound, the inhibition in test [4] was 37%.

`Cc1oc(-c2ccccc2)nc1CCOc1ccc(C(C)N(O)C(N)=O)cc1` (stereo not drawn): the inhibition in vivo at 25 mg/kg in the test on Rattus norvegicus [12] was found to be 57%. Further, in the test listed under Homo sapiens [3], the inhibition at 1 µM was 0%. Moreover, the inhibition at 10 µM in the test listed under Homo sapiens [13] amounted to 60%.

As to `Cc1oc(-c2ccccc2)nc1COc1cccc(CN(O)C(N)=O)c1`, the inhibition in test [1] is 0%; in [4], 33%. Besides, the inhibition in vivo at 25 mg/kg in the test with Rattus norvegicus [12] came out at 78%. The inhibition at 1 µM in the test listed under Homo sapiens [3] worked out at 52%. In the test with Rattus norvegicus [14], this compound registered an Inhibition of 79%.

Usually inhibition stands for the change of the read-out against control, counted positive when it falls. One may read the ED50 as the dose at which the effect has come halfway, by size or by number of responders. For orientation: IC50 means the midpoint of a concentration-inhibition curve. In general, inhibition in vivo refers to the share of the control response that was lost under treatment. By Inhibition is commonly meant the share of the control response that was lost under treatment.
